Assay results as given in PMC7916972, “Therapeutic Targeting of Fumaryl Acetoacetate Hydrolase in Hereditary Tyrosinemia Type I” (International Journal of Molecular Sciences, 2021).

What was measured:
[1] = target: T1, Fumarylacetoacetate hydrolase (WT FAH) (Homo sapiens, UniProt P16930); assay: STD NMR titration; methyl-TROSY M140 splitting; type: binding
T1 sequence (P16930 2-419): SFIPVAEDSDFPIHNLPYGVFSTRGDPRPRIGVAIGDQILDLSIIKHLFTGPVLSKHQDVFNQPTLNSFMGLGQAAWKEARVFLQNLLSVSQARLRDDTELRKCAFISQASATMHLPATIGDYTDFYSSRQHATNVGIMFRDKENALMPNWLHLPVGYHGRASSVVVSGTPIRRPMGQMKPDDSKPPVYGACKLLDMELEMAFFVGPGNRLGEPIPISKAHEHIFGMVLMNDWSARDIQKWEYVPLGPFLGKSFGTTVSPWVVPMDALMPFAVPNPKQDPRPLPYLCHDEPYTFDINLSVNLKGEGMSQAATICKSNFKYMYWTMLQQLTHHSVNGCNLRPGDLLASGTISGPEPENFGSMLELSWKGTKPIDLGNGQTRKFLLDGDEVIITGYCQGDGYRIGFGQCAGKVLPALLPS

[2] = target: T1, Fumarylacetoacetate hydrolase (WT FAH); assay: STD NMR titration; methyl-TROSY M140 shift; type: binding

| Kd [1] [µM] | Kd [2] [µM] | SMILES |
| --- | --- | --- |
| 235 |  | C#Cc1ccncc1 [G1.30.B10] |
|  | 20 | C(#Cc1ccncc1)c1ccncc1 [G2.HT1.1] |
|  | 21 | Cc1ccnc(NC(=O)c2ccc(C)c(N)c2)c1 [G2.HT1.4] |
